# Reference: patent publication US8715678B2, “Method for inhibiting the formation of SET1 family core complexes” (Syracuse University, priority 2008, dated 2014)
# Ends that are not written are not given here.
# Assays:
# [1] = test system: mouse embryonic carcinoma cell nuclei; assay: Fluorescence localization and nuclear phenotype in mouse embryonic carcinoma cells; type: cell-based
# [2] = test system: MLL1-dependent Hox genes (e.g. Hoxc8 and Hoxa9); assay: Expression of MLL1-dependent Hox genes in HEK293T cells; type: cell-based; details: 20 micrograms per milliliter, 24 hours
# Description: In another embodiment, an inhibitor peptide with a cell penetration sequence is used to treat MLL1-associated leukemia. […] The addition of the inhibitor peptides disclosed herein can help control the degree of upregulation and thereby serve as a treatment for leukemia. Experiments have shown the degree of expression of MLL1-dependent Hox genes (e.g. Hoxc8 and Hoxa9) are decreased in the presence of inhibitor peptide SEQ ID NO. 34 in HEK293T cells treated with 20 micrograms per milliliter of the inhibitor peptide for 24 hours.
# [3] = test system: H3K4 trimethylation / H3K27 trimethylation of H3; assay: Western blot of H3K4 trimethylation to H3K27 trimethylation ratio in HEK293T cells; type: cell-based; details: 20 micrograms per milliliter, 24 hours, normalized to total histone H3
# Protocol: HEK293T cells were treated with 20 micrograms per milliliter of the inhibitor peptide (SEQ ID NO. 34) for 24 hours and immune-blotted using antibodies specific for H3K4 trimethylation, H3K27 trimethylation, and histone H3 (to provide for normalization). Western blots were quantified based on band intensity using image analysis software and normalized as a function of total histone H3. Tubulin was used as a loading control and its level remained constant between the two samples.
# WDR5 = biological target: T1, WDR5 (Homo sapiens, UniProt P61964); assay: Binding of N-acetylated three residue peptide (method not given); details: acetylated on the N-terminus
# T1 construct: pMCGS7 plasmids encoding full-length WDR5 as N-terminal His6 fusions were obtained; His6 (N); made in house; host or cells: Escherichia coli (Rosetta II, Novagen)
substance,measurement,setting,value
Ac-VNPTGCARSEPK-Ahx-K(FTIC)-GRKKRRQRRRAP-CONH2 [SEQ ID NO. 34],localization of fluorescent signature,[1]; mouse embryonic carcinoma cells,rapidly localized to eurchromatic regions of mouse embryonic carcinoma cell nuclei
same,effect on metaphase cells and nuclear shape,[1]; within 48 hours of treatment,metaphase cells are absent and many cell nuclei have adopted altered shapes
same,degree of expression of MLL1-dependent Hox genes (Hoxc8 and Hoxa9),[2],decreased
same,ratio of H3K4 trimethylation to H3K27 trimethylation,[3],lowering of the ratio of H3K4 to H3K27
acART (Ac-Ala-Arg-Thr) [three residue peptide (ARX2)],binding of three residue peptide,WDR5,capable of binding
